From patent publication US11092549B2, “Fluorescent probes for drug permeability in gram negative bacteria” (Saint Louis University, priority 2018, dated 2021)
Converted amounts (≈) assume the structure as drawn.

Tests used:
Δ6-Pore cells = assay: Minimal inhibitory concentration (MIC) of fluorescent probes; format: cell-based, P. aeruginosa
From the text: For assessing antibacterial activities, compounds will be analyzed against four strains of P. aeruginosa: WT and ΔEfflux (lacking mexAB-OprM, mexCD-OprJ, mexXY), and their hyperporinated variants WT-Pore and ΔEfflux-Pore (FIGS. 2A-C) (Krishnamoorthy et al., 2016 and Krishnamoorthy et al., 2017). Based on minimal inhibitory concentrations (MIC) and growth IC50, compounds will be grouped as affected by efflux or by OM barriers. […] The inventors expect that at least 50% of the compounds in the library will have antibacterial activities in the hyperporinated efflux-deficient ΔEfflux-Pore. The -fold changes in MICs in the four strains will be used to guide selection of the compounds for detailed studies.
The inventors will use a fluorescence-based assay in which a fluorescent probe, a substrate of efflux pumps, reports EPI activities. Exponentially grown cells will be transferred into a defined medium, dispensed into 96-well plates with increasing concentrations of EPIs, and incubated for a pre-determined time. The probe will be added to cells and fluorescence recorded at different time points. Compounds with efflux inhibiting activities will increase the uptake of the probe and as a result increase the probe fluorescence (FIG. 3) (Abdali et al., 2017). […]

[1] = system: E. coli BW25113 and P. aeruginosa PAO1; assay: Screen of NCI Diversity sets for antibacterial and EPI activities, with profiling of actives; format: cell-based
From the text: The inventors screened NCI Diversity sets in E. coli BW25113 and P. aeruginosa PAO1 for antibacterial and EPI activities. From ˜2,000 compounds tested, the inventors identified 34 active compounds (Abdali et al., 2017). […] Synthetic procedures for modifying NSC 60339 has been described before (Abdali et al., 2017 and Gamage et al., 2013). Because clinically-important antibiotics are extensively optimized, the inventors have chosen to focus on fluoroquinolones, tetracyclines, oxazolidinones, phenicols and macrolides/ketolides representatives that are known to penetrate through both the LPS-phospholipid bilayer and porins of the OM and include both broad and narrow spectrum antibiotics.

[2] = system: E. coli strains BW25113, ΔEfflux, WT-Pore and ΔEfflux-Pore; assay: Fluorescence-based intracellular uptake of compounds in efflux-proficient, efflux-deficient and hyperporinated cells (FIG. 3); settings: when the cell envelope is compromised, excitation 335 nm
Protocol: For Hoechst or compound uptake experiments, overnight grown cells will be re-inoculated into 30 ml LB broth and grown until OD600 of 1. The cells will then pelleted by centrifugation for 15 min at room temperature and washed once in HMG buffer. The pellet will be resuspended in HMG buffer to OD600 of 2.0 and kept at room temperature during the course of the experiment. For the efflux inhibition or uptake kinetics, 100 μl of Hoechst or compound solution in HMG buffer with and without increasing concentrations of inhibitors at twice the concentrations indicated will be added into a black F-bottom non-binding 96-well plate. Fluorescence of Hoechst or compounds will be followed at λex=355 nm and λem=450 nm. To this, 100 μl of cells at OD600 of 2.0 was injected, shaken for 6 sec and the fluorescence of Hoechst will be monitored continuously for up to 10 min.
The inventors will use a fluorescence-based assay in which a fluorescent probe, a substrate of efflux pumps, reports EPI activities. Exponentially grown cells will be transferred into a defined medium, dispensed into 96-well plates with increasing concentrations of EPIs, and incubated for a pre-determined time. The probe will be added to cells and fluorescence recorded at different time points. Compounds with efflux inhibiting activities will increase the uptake of the probe and as a result increase the probe fluorescence (FIG. 3) (Abdali et al., 2017). The reverse kinetic curves, in which the concentration of the compound is fixed while the probe concentration varies, will be also collected. Detailed quantification of the kinetic data will be performed using two probes: a DNA dye Hoechst 33342 (HT) (Eicher et al., 2012; Nakashima et al., 2011 and Richmond et al., 2013) and a novel SLU-417 probe that were synthesized during a focused synthetic effort (Haynes et al., 2017). HT is a topoisomerase inhibitor with the MIC 2 μM in Δ6-Pore cells. In contrast, SLU-417 is relatively inert with MIC≥50 μM, which should reduce possible non-specific effect during drug uptake measurements.
Experiments were carried out in four E. coli strains, BW25113, a wild type strain with efflux pumps, ΔEfflux, a cell line in which the efflux pumps have been inactivated by removal of tolC gene and their hyperporinated variants WT-Pore and ΔEfflux-Pore. Four compounds were tested in these cell lines which show increased fluorescence intensity in cells in which the efflux pumps have been removed (FIG. 3).

`CCOc1ccc(-c2nc3ccc(-c4nc5ccc(N6CCN(C)CC6)cc5[nH]4)cc3[nH]2)cc1` [HT, Hoechst 33342, reference compound] was tested. Which MIC (Δ6-Pore cells; Δ6-Pore cells) did it give?
The MIC was 2 µM (≈ 0.905 µg/mL).

For `O=C(Nc1ccc(C2=NCCN2)cc1)c1ccc(C(=O)Nc2ccc(C3=NCCN3)cc2)c(Cl)c1` [NSC 60339], which “antibacterial and anti-MFP (Membrane Fusion Protein) activities” value [1] is on record?
The value was “have both antibacterial and anti-MFP”.

And the “substrate of efflux pumps” value [1]?
The value was “modest substrate of efflux pumps”.

Which MIC (Δ6-Pore cells; Pseudomonas aeruginosa) does the source give for `CC(C)c1ccc(/C=C/C(=O)Nc2ccc(C3=NCCN3)cc2)cc1` [SLU-417] here?
The MIC was no less than 50 µM.

What about the intracellular uptake [2] of the same compound?
Its intracellular uptake is “increases”.

`O=C(Nc1ccc(C2=NCCN2)cc1)c1ccc(-c2cc(Cl)cc(Cl)c2)s1` [SLU-446] was tested. Which intracellular uptake [2] did it give?
Its intracellular uptake is “increases”.

How did the intracellular uptake [2] turn out when `COc1ccc(/C=C/C(=O)Nc2ccc(C3=NCCN3)cc2)cc1` [SLU-448] was run?
Its intracellular uptake is “increases”.

How did the intracellular uptake [2] turn out when `O=C(Nc1ccc(C2=NCCN2)cc1)c1cc2cc(Cl)ccc2o1` [SLU-843] was run?
The intracellular uptake was “increases”.
